Test results as given in article PMC12863195 (2026).

Experiments:
[1] = tested on: Na/Ta/Pa (DNA, aptamer) ACCTGGGGGAGTATTAATACGACTCACTATAGGGTTCTCCTCTGCGTTGTTGTTTG/CAAACAACAACGCAGAGGAGAACCCTATAGTGAGTCG/TATTATGCGGAGGAAGGT; test: transcription activation, F/Q strand displacement fluorescence; conditions: Mg2+ 20 mM (MgCl2); 1×RNAPol reaction buffer, 0.2 µM strands, 0.125-2 mM Ade, 33 °C
[2] = tested on: Split Ade aptamer – 0nt (d1/t1+d2/t2) (DNA, aptamer) AGGGTGGTGGCGTGCGGAGGAAGGT/ACCTGGGGGAGTATCGCCTAGGTTGGGT; test: ITC; conditions: Mg2+ 40 mM (MgCl2); 40 mM Tris acetate pH 7.9, 25 °C; one set of sites fit
[3] = tested on: Split Ade aptamer – 3nt (Ga/Ha; d1/c/t1+d2/c'/t2) (DNA, aptamer) AGGGTGGTGGCGAACTGCGGAGGAAGGT/ACCTGGGGGAGTATGATCGCCTAGGTTGGGT; test: ITC; conditions: Mg2+ 40 mM (MgCl2); 40 mM Tris acetate pH 7.9, 25 °C; one set of sites fit
[4] = tested on: Split Ade aptamer – 3nt (Ga/Ha; d1/c/t1+d2/c'/t2) (DNA, aptamer) AGGGTGGTGGCGAACTGCGGAGGAAGGT/ACCTGGGGGAGTATGATCGCCTAGGTTGGGT; test: stated; ADA-driven loss of thrombin inhibition; conditions: adenosine 1.25-1.8 mM converted by ADA
[5] = tested on: R1 (MG RNA aptamer) (RNA, aptamer) GGAUCCCGACUGGCGAGAGCCAGGUAACGAAUGGAUCC; test: fluorescence (ex 632 nm, em 650 nm); conditions: Mg2+ 20 mM (MgCl2); 1×RNAPol reaction buffer, 5 mM DTT, 2 µM MG, 35 °C, during transcription
[6] = tested on: Intact Mel aptamer (DNA, aptamer) GCACACCGATGGCGGTCCTGTTTAGGGGGTGTGC; test: ITC; conditions: Mg2+ 40 mM (MgCl2); 20 mM Tris acetate pH 7.9, 25 °C; one set of sites fit
[7] = tested on: Gm/Hm (DNA, aptamer) AGGGTGGTGGCGAAAGCACACCGATGGCGGTCCTGTAGGT/ACCTTTAGGGGGTGTGCAAACGCCTAGGTTGGGT; test: thrombin coagulation inhibition, light scattering; conditions: 1 µM Gm/Hm, 5 nM thrombin, 10 mg/ml fibrinogen, 10-1000 µM Mel, 25 °C
[8] = tested on: Dm/Em (DNA, aptamer) CTGTTCAGCGATGCACACCGATGGCGGTCCTGTAGGT/ACCTTTAGGGGGTGTGCCACCCATGTTCCTGA; test: DNAzyme cleavage of FAM/BHQ1 substrate, fluorescence; conditions: Mg2+ 40 mM (MgCl2); apparent; 20 mM Tris acetate pH 7.9, 1 µM each strand, 1 µM substrate S, BSA
[9] = tested on: Split Mel aptamer – 4nt (DNA, aptamer) GCACACCGATGGCGGTCCTGTAGGT/ACCTTTAGGGGGTGTGC; test: ITC; conditions: Mg2+ 40 mM (MgCl2); 20 mM Tris acetate pH 7.9, 25 °C; one set of sites fit
[10] = tested on: Split Mel aptamer – 0nt (DNA, aptamer) GCACACCGATGGCGGTCCTGT/TTAGGGGGTGTGC; test: ITC; conditions: Mg2+ 40 mM (MgCl2); 20 mM Tris acetate pH 7.9, 25 °C; poorly defined fit (ΔH -335 ±751 kJ/mol)
[11] = tested on: Nm/Tm/Pm (DNA, aptamer) TAATACGACTCACTATAGGGATCCCGACTGGCGAGAGCCAGGTAACGAATGGATCC/GGATCCATTCGTTACCTGGCTCTCGCCAGTCGGGATCCCTATAGTGAGTCTTAGGGGGTGTGC/GCACACCGATGGCGGTCCTGTGTATTA; test: transcription activation, MG aptamer fluorescence; conditions: Mg2+ 20 mM (MgCl2); 1×RNAPol reaction buffer, 0.2 µM strands, 0.125-2 mM Mel, 35 °C

Nc1ncnc2c1ncn2[C@@H]1O[C@H](CO)[C@@H](O)[C@H]1O
binding [1]: yes | Kd [2]: 14.1 ± 1.3 µM | Kd [3]: 7.28 ± 0.82 µM

O=c1[nH]cnc2c1ncn2[C@@H]1O[C@H](CO)[C@@H](O)[C@H]1O
binding [4]: no

CN(C)c1ccc(C(=C2C=CC(=[N+](C)C)C=C2)c2ccccc2)cc1
binding [5]: yes

Nc1nc(N)nc(N)n1
Kd [6]: 0.800 ± 0.139 µM | binding [7]: yes | K0.5 [8]: 162 ± 4.8 µM | Kd [9]: 0.890 ± 0.123 µM | Kd [10]: 11.1 ± 2.09 µM | binding [11]: yes
